These results are taken from ChEMBL document CHEMBL1138535, “Comparison of beta-lactam and macrolide combination therapy versus fluoroquinolone monotherapy in hospitalized Veterans Affairs patients with community-acquired pneumonia” (2007).

Type in all cases: functional
In test [1] the test system is Homo sapiens. The test can be described thus: Protection against community-acquired pneumonia in patient with pneumonia severity index-5 assessed as mortality at 500 mg administered once daily for 30 days.
The subject of test [2] is Homo sapiens. The test can be described thus: Protection against community-acquired pneumonia in patient with pneumonia severity index-4 assessed as mortality at 500 mg administered once daily for 30 days.
The test system of test [3] is Homo sapiens. The test can be described thus: Protection against community-acquired pneumonia in patient with pneumonia severity index-3 assessed as mortality at 500 mg administered once daily for 30 days.
Test [4] deals with Homo sapiens. The test can be described thus: Protection against community-acquired pneumonia in patient with pneumonia severity index-2 assessed as mortality at 500 mg administered once daily for 30 days.
Test [5] deals with Homo sapiens. Nature of the test: Protection against community-acquired pneumonia in patient with pneumonia severity index-2 assessed as mortality at 500 mg administered once daily for 14 days.
Test [6] relates to Homo sapiens. The test can be described thus: Protection against community-acquired pneumonia in patient with pneumonia severity index-3 assessed as mortality at 500 mg administered once daily for 14 days.
Test [7] deals with Homo sapiens. Nature of the test: Protection against community-acquired pneumonia in patient with pneumonia severity index-4 assessed as mortality at 500 mg administered once daily for 14 days.
Test [8] deals with Homo sapiens. The test can be described thus: Protection against community-acquired pneumonia in patient with pneumonia severity index-5 assessed as mortality at 500 mg administered once daily for 14 days.

As for `C[C@H]1COc2c(N3CCN(C)CC3)c(F)cc3c(=O)c(C(=O)O)cn1c23.C[C@H]1COc2c(N3CCN(C)CC3)c(F)cc3c(=O)c(C(=O)O)cn1c23.O` [LEVOFLOXACIN], the Activity in the test on Homo sapiens [1] is on record as 36.6%; with Homo sapiens [2], 5%; in the test with Homo sapiens [3], 6.3%; in the test with Homo sapiens [4], 0%; with Homo sapiens [5] it was 0%; with Homo sapiens [6], 2.1%. The Activity in the test on Homo sapiens [7] was determined as 4.2%; with Homo sapiens [8], 26.8%.
